Values quoted from earlier work as cited in EP0920301B1, “THERAPEUTIC OR HYGIENIC COMPOSITIONS WITH CONTROLLED AND PROLONGED RELEASE OF THE ACTIVE PRINCIPLE(S), IN PARTICULAR FOR OPHTHALMIC USE” (priority 1997, dated 1998).

System: la plupart des agents infectieux
Conditions: stated threshold, source not given

Question: With sulfate de gentamicine as the substance, how does the concentration inhibitrice minimale read?
Answer: 4 µg/mL
